Experimental data published in US10875874B2, “Ginkgolide B derivative and preparation method and use thereof” (Chengdu Baiyu Ginkgolide Pharmaceuticals Co., Ltd., priority 2015, dated 2020).
Values after ≈ are worked out from the molar mass of the structure shown. Marks after values point to notes of the source that are not given here.

Columns and labels:
[1] = Weekly food intake of SHR rats; type: in vivo, rat
In short: (§1)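 Male and female SHR rats (200-250 g, 8/group) dosed intragastrically once daily for 8 weeks with test compounds at 60 or 120 mg/kg/d or captopril 27 mg/kg; Wistar and SHR controls received distilled water. Body weight and food intake observed during treatment.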

[2] = Weekly body weight of SHR rats; type: in vivo, rat
In short: as §1

[3] = test system: spontaneously hypertensive rats (SHR); assay: Caudal artery systolic pressure of spontaneously hypertensive rats, 8 weeks of continuous medication; type: in vivo, rat; conditions: x ± s, n = 8
In short: (§2)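 SHR rats of both sexes (200–250 g, 8/group) dosed intragastrically with 60 or 120 mg/kg/d, or captopril 27 mg/kg, once daily for 8 weeks; Wistar rats and vehicle SHR served as controls. Tail-cuff systolic pressure taken as the mean of 3 readings, measured before dosing and 30–120 min after the first dose, or 30 min post-dose on days 1–56 for chronic treatment.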

[4] = test system: spontaneously hypertensive rats (SHR); assay: Caudal artery systolic pressure of spontaneously hypertensive rats, single administration; type: in vivo, rat; conditions: x ± s, n = 8
In short: as §2

physchem = conditions: water, thermodynamic from solid
Description: (§3) Measuring method: samples are ground to obtain fine powder, target compounds are quantitatively weighed, the weighed compounds are added into purified water, and the solubility of the compounds is investigated by ultrasonics.

Water solubility test = conditions: purified water, thermodynamic from solid
Description: as §3

[5] = 60 mg/kg/d intragastric, week 0
[6] = 60 mg/kg/d intragastric, week 1
[7] = 60 mg/kg/d intragastric, week 2
[8] = 60 mg/kg/d intragastric, week 3
[9] = 60 mg/kg/d intragastric, week 4
[10] = 60 mg/kg/d intragastric, week 5
[11] = 60 mg/kg/d intragastric, week 6
[12] = 60 mg/kg/d intragastric, week 7
[13] = 60 mg/kg/d intragastric, week 8
[14] = 120 mg/kg/d intragastric, week 0
[15] = 120 mg/kg/d intragastric, week 1
[16] = 120 mg/kg/d intragastric, week 2
[17] = 120 mg/kg/d intragastric, week 3
[18] = 120 mg/kg/d intragastric, week 4
[19] = 120 mg/kg/d intragastric, week 5
[20] = 120 mg/kg/d intragastric, week 6
[21] = 120 mg/kg/d intragastric, week 7
[22] = 120 mg/kg/d intragastric, week 8
[23] = 60 mg/kg/d intragastric continuous, 1 d, 30 min after administration
[24] = 60 mg/kg/d intragastric continuous, 7 d, 30 min after administration
[25] = 60 mg/kg/d intragastric continuous, 13 d, 30 min after administration
[26] = 60 mg/kg/d intragastric continuous, 19 d, 30 min after administration
[27] = 60 mg/kg/d intragastric continuous, 25 d, 30 min after administration
[28] = 60 mg/kg/d intragastric continuous, 35 d, 30 min after administration
[29] = 60 mg/kg/d intragastric continuous, 49 d, 30 min after administration
[30] = 60 mg/kg/d intragastric continuous, 56 d, 30 min after administration
[31] = 60 mg/kg/d intragastric continuous, before administration
[32] = 120 mg/kg/d intragastric continuous, 1 d, 30 min after administration
[33] = 120 mg/kg/d intragastric continuous, 7 d, 30 min after administration
[34] = 120 mg/kg/d intragastric continuous, 13 d, 30 min after administration
[35] = 120 mg/kg/d intragastric continuous, 19 d, 30 min after administration
[36] = 120 mg/kg/d intragastric continuous, 25 d, 30 min after administration
[37] = 120 mg/kg/d intragastric continuous, 35 d, 30 min after administration
[38] = 120 mg/kg/d intragastric continuous, 49 d, 30 min after administration
[39] = 120 mg/kg/d intragastric continuous, 56 d, 30 min after administration
[40] = 120 mg/kg/d intragastric continuous, before administration
[41] = 60 mg/kg intragastric single administration, 30 min
[42] = 60 mg/kg intragastric single administration, 60 min
[43] = 60 mg/kg intragastric single administration, 90 min
[44] = 60 mg/kg intragastric single administration, 120 min
[45] = 60 mg/kg intragastric single administration, before administration
[46] = 120 mg/kg intragastric single administration, 30 min
[47] = 120 mg/kg intragastric single administration, 60 min
[48] = 120 mg/kg intragastric single administration, 90 min
[49] = 120 mg/kg intragastric single administration, 120 min
[50] = 120 mg/kg intragastric single administration, before administration

Cc1nc(C)c(CO[C@H]2C(=O)O[C@H]3O[C@]45C(=O)OC6C[C@@H](C(C)(C)C)C32[C@@]64[C@@H](O)[C@@H]2OC(=O)[C@@H](C)[C@@]25O)nc1C (stereo partly shown) [BM]
Average dairy food intake [1, 5]: 18.2 g/day | Average dairy food intake [1, 6]: 19.1^▴ g/d | Average dairy food intake [1, 7]: 19.9^▴ g/d | Average dairy food intake [1, 8]: 20.9^▴▴ g/d | Average dairy food intake [1, 9]: 21.3^▴▴ g/d | Average dairy food intake [1, 10]: 22.4^▴▴ g/d | Average dairy food intake [1, 11]: 23.1^▴▴ g/d | Average dairy food intake [1, 12]: 24.7^▴▴ g/d | Average dairy food intake [1, 13]: 25.5^▴▴ g/d | Average dairy food intake [1, 14]: 18.5 g/day | Average dairy food intake [1, 15]: 19.9^▴ g/d | Average dairy food intake [1, 16]: 20.7^▴▴ g/d | Average dairy food intake [1, 17]: 22.6^▴▴ g/d | Average dairy food intake [1, 18]: 22.9^▴▴ g/d | Average dairy food intake [1, 19]: 23.7^▴▴ g/d | Average dairy food intake [1, 20]: 24.4^▴▴ g/d | Average dairy food intake [1, 21]: 25.8^▴▴ g/d | Average dairy food intake [1, 22]: 27.6^▴▴ g/d | Body weight [2, 5]: 231.5 g | Body weight [2, 6]: 236.8 g | Body weight [2, 7]: 245.7^▴▴ g | Body weight [2, 8]: 253.4 g | Body weight [2, 9]: 258.3 g | Body weight [2, 10]: 263.5^▴ g | Body weight [2, 11]: 271.3^▴▴ g | Body weight [2, 12]: 281.6^▴▴ g | Body weight [2, 13]: 292.5^▴▴ g | Body weight [2, 14]: 233.4 g | Body weight [2, 15]: 249.5^▴▴ g | Body weight [2, 16]: 256.8^▴▴ g | Body weight [2, 17]: 264.3^▴▴ g | Body weight [2, 18]: 271.6^▴▴ g | Body weight [2, 19]: 280.4^▴▴ g | Body weight [2, 20]: 290.5^▴▴ g | Body weight [2, 21]: 305.7^▴▴ g | Body weight [2, 22]: 315.8^▴▴ g | Systolic pressure [3, 23]: 155.25 ± 12.36 mmHg | Systolic pressure [3, 24]: 154.85 ± 10.49 mmHg | Systolic pressure [3, 25]: 153.26 ± 12.95 mmHg | Systolic pressure [3, 26]: 156.74 ± 10.36 mmHg | Systolic pressure [3, 27]: 154.75 ± 10.39 mmHg | Systolic pressure [3, 28]: 151.48 ± 10.32 mmHg | Systolic pressure [3, 29]: 151.17 ± 14.05 mmHg | Systolic pressure [3, 30]: 154.64 ± 11.42 mmHg | Systolic pressure [3, 31]: 166.27 ± 14.01 mmHg | Systolic pressure [3, 32]: 154.62 ± 5.74 mmHg | Systolic pressure [3, 33]: 152.31 ± 10.56 mmHg | Systolic pressure [3, 34]: 151.58 ± 12.06 mmHg | Systolic pressure [3, 35]: 153.06 ± 10.41 mmHg | Systolic pressure [3, 36]: 148.54 ± 11.62 mmHg | Systolic pressure [3, 37]: 149.36 ± 10.75 mmHg | Systolic pressure [3, 38]: 150.32 ± 9.59 mmHg | Systolic pressure [3, 39]: 149.78 ± 11.64 mmHg | Systolic pressure [3, 40]: 163.45 ± 15.24 mmHg | Systolic pressure [4, 41]: 156.21 ± 9.68 mmHg | Systolic pressure [4, 42]: 152.06 ± 9.78 mmHg | Systolic pressure [4, 43]: 151.74 ± 13.15 mmHg | Systolic pressure [4, 44]: 152.52 ± 15.06 mmHg | Systolic pressure [4, 45]: 166.27 ± 14.01 mmHg | Systolic pressure [4, 46]: 149.04 ± 10.95 mmHg | Systolic pressure [4, 47]: 151.58 ± 9.85 mmHg | Systolic pressure [4, 48]: 153.65 ± 11.04 mmHg | Systolic pressure [4, 49]: 151.00 ± 9.85 mmHg | Systolic pressure [4, 50]: 163.45 ± 15.24 mmHg | solubility (physchem): 250 µg/mL (≈ 448 µM)

Cc1nc(C)c(C(=O)O[C@H]2C(=O)O[C@H]3O[C@]45C(=O)OC6C[C@@H](C(C)(C)C)C32[C@@]64[C@@H](O)[C@@H]2OC(=O)[C@@H](C)[C@@]25O)nc1C (stereo partly shown) [BZ]
solubility (Water solubility test): 300 µg/mL (≈ 524 µM) | Average dairy food intake [1, 5]: 18.1 g/day | Average dairy food intake [1, 6]: 19.5^▴ g/d | Average dairy food intake [1, 7]: 19.7^▴ g/d | Average dairy food intake [1, 8]: 20.4^▴▴ g/d | Average dairy food intake [1, 9]: 20.9^▴▴ g/d | Average dairy food intake [1, 10]: 21.7^▴▴ g/d | Average dairy food intake [1, 11]: 22.9^▴▴ g/d | Average dairy food intake [1, 12]: 24.0^▴▴ g/d | Average dairy food intake [1, 13]: 24.9^▴▴ g/d | Average dairy food intake [1, 14]: 18.0 g/day | Average dairy food intake [1, 15]: 19.3^▴ g/d | Average dairy food intake [1, 16]: 20.5^▴▴ g/d | Average dairy food intake [1, 17]: 22.0^▴▴ g/d | Average dairy food intake [1, 18]: 22.6^▴▴ g/d | Average dairy food intake [1, 19]: 23.6^▴▴ g/d | Average dairy food intake [1, 20]: 24.1^▴▴ g/d | Average dairy food intake [1, 21]: 24.9^▴▴ g/d | Average dairy food intake [1, 22]: 27.0^▴▴ g/d | Body weight [2, 5]: 231.0 g | Body weight [2, 6]: 235.7 g | Body weight [2, 7]: 242.5 g | Body weight [2, 8]: 251.6 g | Body weight [2, 9]: 259.4^▴ g | Body weight [2, 10]: 263.6^▴ g | Body weight [2, 11]: 269.1^▴▴ g | Body weight [2, 12]: 276.8^▴▴ g | Body weight [2, 13]: 288.0^▴▴ g | Body weight [2, 14]: 268.9 g | Body weight [2, 15]: 249.4^▴▴ g | Body weight [2, 16]: 256.7^▴▴ g | Body weight [2, 17]: 262.4^▴▴ g | Body weight [2, 18]: 268.9^▴▴ g | Body weight [2, 19]: 280.7^▴▴ g | Body weight [2, 20]: 291.3^▴▴ g | Body weight [2, 21]: 305.4^▴▴ g | Body weight [2, 22]: 320.9^▴▴ g | Systolic pressure [3, 23]: 158.77 ± 11.06 mmHg | Systolic pressure [3, 24]: 153.41 ± 14.08 mmHg | Systolic pressure [3, 25]: 151.38 ± 9.47 mmHg | Systolic pressure [3, 26]: 155.74 ± 10.62 mmHg | Systolic pressure [3, 27]: 154.94 ± 9.64 mmHg | Systolic pressure [3, 28]: 150.95 ± 5.04 mmHg | Systolic pressure [3, 29]: 155.06 ± 6.37 mmHg | Systolic pressure [3, 30]: 153.95 ± 14.01 mmHg | Systolic pressure [3, 31]: 163.58 ± 10.36 mmHg | Systolic pressure [3, 32]: 154.69 ± 9.85 mmHg | Systolic pressure [3, 33]: 153.74 ± 10.24 mmHg | Systolic pressure [3, 34]: 150.39 ± 10.39 mmHg | Systolic pressure [3, 35]: 149.72 ± 9.83 mmHg | Systolic pressure [3, 36]: 149.02 ± 8.26 mmHg | Systolic pressure [3, 37]: 151.72 ± 10.47 mmHg | Systolic pressure [3, 38]: 153.42 ± 12.04 mmHg | Systolic pressure [3, 39]: 148.62 ± 9.73 mmHg | Systolic pressure [3, 40]: 166.24 ± 12.14 mmHg | Systolic pressure [4, 41]: 152.65 ± 10.48 mmHg | Systolic pressure [4, 42]: 153.05 ± 16.39 mmHg | Systolic pressure [4, 43]: 151.14 ± 10.87 mmHg | Systolic pressure [4, 44]: 156.47 ± 12.47 mmHg | Systolic pressure [4, 45]: 163.58 ± 10.36 mmHg | Systolic pressure [4, 46]: 150.00 ± 9.15 mmHg | Systolic pressure [4, 47]: 152.95 ± 9.26 mmHg | Systolic pressure [4, 48]: 156.28 ± 13.95 mmHg | Systolic pressure [4, 49]: 169.36 ± 10.63 mmHg | Systolic pressure [4, 50]: 166.24 ± 12.14 mmHg
